Legend:
Format in all cases: biochemical
human Cat L = human Cat L (Homo sapiens (Human), UniProt P07711); experiment: Cathepsin enzyme inhibition assay (fluorogenic peptide substrate), Cat L; settings: enzyme 1 nM, substrate Z-Val-Val-Arg-AMC 20 μM, pH 6.5
Protocol: (§1) Enzyme activity is measured by observing the increase in fluorescence intensity caused by cleavage of a peptide substrate containing a fluorophore whose emission is quenched in the intact peptide.
(§2) Assay buffer: 100 mM potassium phosphate pH 6.5, EDTA-Na 5 mM, Triton X-100 0.001%, DTT 5 mM.
(§3) Enzymes (all at 1 nM): human and mouse Cathepsin S, Cat K, Cat B, Cat L. Substrate (20 μM): Z-Val-Val-Arg-AMC, except for Cat K which uses Z-Leu-Arg-AMC (both from Bachem).
(§4) Excitation 360 nm, Emission 465 nm.
(§5) Enzyme is added to the substance dilutions in 96-well microtitre plates and the reaction is started with substrate. […] IC50 are calculated by standard methods. Inhibition of human Cat S, mouse Cat S, human Cat K, mouse Cat K, human Cat B, mouse Cat B, human Cat L and mouse Cat L have been measured separately.

human Cat K = human Cat K (Homo sapiens (Human), UniProt P43235); experiment: Cathepsin enzyme inhibition assay (fluorogenic peptide substrate), Cat K; settings: enzyme 1 nM, substrate Z-Leu-Arg-AMC 20 μM, pH 6.5
human Cat K, sequence (P43235 115-329): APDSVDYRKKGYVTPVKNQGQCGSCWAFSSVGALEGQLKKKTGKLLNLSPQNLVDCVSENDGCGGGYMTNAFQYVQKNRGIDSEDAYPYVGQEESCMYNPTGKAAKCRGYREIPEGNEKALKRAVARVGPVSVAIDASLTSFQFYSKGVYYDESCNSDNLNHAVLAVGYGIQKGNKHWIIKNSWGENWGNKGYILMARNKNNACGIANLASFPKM
Protocol: as §1, §2, §3, §4, §5

human Cathepsin S = human Cathepsin S (Homo sapiens (Human), UniProt P25774); experiment: Cathepsin enzyme inhibition assay (fluorogenic peptide substrate), Cat S; settings: enzyme 1 nM, substrate Z-Val-Val-Arg-AMC 20 μM, pH 6.5
human Cathepsin S, sequence (P25774 115-331): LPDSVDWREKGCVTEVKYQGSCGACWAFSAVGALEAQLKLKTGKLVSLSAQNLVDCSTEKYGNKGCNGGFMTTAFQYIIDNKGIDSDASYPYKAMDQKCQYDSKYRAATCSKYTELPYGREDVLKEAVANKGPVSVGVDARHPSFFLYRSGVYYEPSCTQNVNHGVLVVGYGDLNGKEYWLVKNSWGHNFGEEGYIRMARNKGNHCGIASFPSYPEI
Protocol: as §1, §2, §3, §4, §5

human Cat B = human Cat B (Homo sapiens (Human), UniProt P07858); experiment: Cathepsin enzyme inhibition assay (fluorogenic peptide substrate), Cat B; settings: enzyme 1 nM, substrate Z-Val-Val-Arg-AMC 20 μM, pH 6.5
Protocol: as §1, §2, §3, §4, §5

human Cat L, sequence (P07711 114-333): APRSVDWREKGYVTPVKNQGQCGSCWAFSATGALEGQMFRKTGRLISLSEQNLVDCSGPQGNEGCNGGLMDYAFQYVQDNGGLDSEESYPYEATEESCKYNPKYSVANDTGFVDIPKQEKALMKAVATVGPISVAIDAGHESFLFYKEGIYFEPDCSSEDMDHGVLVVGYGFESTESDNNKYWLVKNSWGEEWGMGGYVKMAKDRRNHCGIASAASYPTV

| Structure (SMILES) | IC50 (human Cat L) | IC50 (human Cat K) | IC50 (human Cathepsin S) | IC50 (human Cat B) |
| --- | --- | --- | --- | --- |
| CC[C@H](NC(=O)[C@@H]1C[C@@H](S(=O)(=O)c2ccc(OCC(F)(F)F)cc2Cl)CN1C(=O)C1(c2ncc(Cl)cc2F)CC1)C(=O)C(=O)NC1CC1 [Example 10, (2S,4R)-1-(1-(5-chloro-3-fluoropyridin-2-yl)cyclopropanecarbonyl)-4-(2-chloro-4-(2,2,2-trifluoroethoxy)phenylsulfonyl)-N—((S)-1-(cyclopropylamino)-1,2-dioxopentan-3-yl)pyrrolidine-2-carboxamide] | 55.4 nM | 118 nM | 2.88 nM | 829 nM |
| CC[C@H](NC(=O)[C@@H]1C[C@@H](S(=O)(=O)c2ccc(OCC(F)(F)F)cc2C(F)(F)F)CN1C(=O)C1(c2ccc(Cl)cc2)CC1)C(=O)C(=O)NC1CC1 [Example 11] | 63.2 nM | 390 nM | 1.38 nM | 291 nM |
| CC[C@H](NC(=O)[C@@H]1C[C@@H](S(=O)(=O)c2ccccc2Cl)CN1C(=O)C1(c2ccc(Cl)cc2)CC1)C(=O)c1nc2ccccc2o1 [Example 12, (2S,4R)—N—((S)-1-(benzo[d]oxazol-2-yl)-1-oxobutan-2-yl)-1-(1-(4-chlorophenyl)cyclopropanecarbonyl)-4-(2-chlorophenylsulfonyl)pyrrolidine-2-carboxamide] | 21.2 nM | 360 nM | 0.737 nM | 183 nM |
| CC[C@H](NC(=O)[C@@H]1C[C@@H](S(=O)(=O)c2ccccc2Cl)CN1C(=O)C1(c2ccc(Cl)cc2F)CC1)C(=O)C(=O)NC1CC1 [Example 13, (2S,4R)-1-(1-(4-chloro-2-fluorophenyl)cyclopropanecarbonyl)-4-(2-chlorophenylsulfonyl)-N—((S)-1-(cyclopropylamino)-1,2-dioxopentan-3-yl)pyrrolidine-2-carboxamide] | 11.3 nM | 67.9 nM | 0.704 nM | 142 nM |
| CC[C@H](NC(=O)[C@@H]1C[C@@H](S(=O)(=O)c2ccccc2Cl)CN1C(=O)C1(c2ccc(Br)cc2F)CC1)C(=O)C(=O)NC1CC1 [Example 14, (2S,4R)-1-(1-(4-bromo-2-fluorophenyl)cyclopropanecarbonyl)-4-(2-chlorophenylsulfonyl)-N—((S)-1-(cyclopropylamino)-1,2-dioxopentan-3-yl)pyrrolidine-2-carboxamide] | 10.4 nM | 37.3 nM | 0.668 nM | 150 nM |
| CC[C@H](NC(=O)[C@@H]1C[C@@H](S(=O)(=O)c2ccccc2Cl)CN1C(=O)C1(c2ccc(Br)cc2)CC1)C(=O)C(=O)NC1CC1 [Example 15, (2S,4R)-1-(1-(4-bromophenyl)cyclopropanecarbonyl)-4-(2-chlorophenylsulfonyl)-N—((S)-1-(cyclopropylamino)-1,2-dioxopentan-3-yl)pyrrolidine-2-carboxamide] | 8.2 nM | 44.8 nM | 0.52 nM | 98.5 nM |
| CCC[C@H](NC(=O)[C@@H]1C[C@@H](S(=O)(=O)c2ccccc2Cl)CN1C(=O)C1(c2ccc(Br)cc2)CC1)C(=O)C(=O)NC1CC1 [Example 16, (2S,4R)-1-(1-(4-bromophenyl)cyclopropanecarbonyl)-4-(2-chlorophenylsulfonyl)-N—((S)-1-(cyclopropylamino)-1,2-dioxohexan-3-yl)pyrrolidine-2-carboxamide] | 5.9 nM | 20.2 nM | 0.442 nM | 45.4 nM |
| CCC[C@H](NC(=O)[C@@H]1C[C@@H](S(=O)(=O)c2ccccc2Cl)CN1C(=O)C1(c2ccc(I)cc2)CC1)C(=O)C(=O)NC1CC1 [Example 18, (2S,4R)-4-(2-chlorophenylsulfonyl)-N—((S)-1-(cyclopropylamino)-1,2-dioxohexan-3-yl)-1-(1-(4-iodophenyl)cyclopropanecarbonyl)pyrrolidine-2-carboxamide] | 8.4 nM | 21 nM | 0.6 nM | 70.1 nM |
| CC[C@H](NC(=O)[C@@H]1C[C@@H](S(=O)(=O)c2ccccc2C(F)(F)F)CN1C(=O)C1(c2ncc(Cl)cc2F)CC1)C(=O)C(=O)NC1CC1 [Example 19, (2S,4R)-1-(1-(5-chloro-3-fluoropyridin-2-yl)cyclopropanecarbonyl)-N—((S)-1-(cyclopropylamino)-1,2-dioxopentan-3-yl)-4-(2-(trifluoromethyl)phenylsulfonyl)pyrrolidine-2-carboxamide] | 32.4 nM | 758 nM | 0.593 nM | 424 nM |
| CCC[C@H](NC(=O)[C@@H]1C[C@@H](S(=O)(=O)c2ccccc2C(F)(F)F)CN1C(=O)C1(c2ncc(Cl)cc2F)CC1)C(=O)C(=O)NC1CC1 [Example 20, (2S,4R)-1-(1-(5-chloro-3-fluoropyridin-2-yl)cyclopropanecarbonyl)-N—((S)-1-(cyclopropylamino)-1,2-dioxohexan-3-yl)-4-(2-(trifluoromethyl)phenylsulfonyl)pyrrolidine-2-carboxamide] | 18.5 nM | 347 nM | 0.56 nM | 245 nM |
| CC[C@H](NC(=O)[C@@H]1C[C@@H](S(=O)(=O)c2ccccc2C(F)(F)F)CN1C(=O)C1(c2ccc(Cl)cc2)CC1)C(=O)C(=O)NC1CC1 [Example 21, (2S,4R)-1-(1-(4-chlorophenyl)cyclopropanecarbonyl)-N—((S)-1-(cyclopropylamino)-1,2-dioxopentan-3-yl)-4-(2-(trifluoromethyl)phenylsulfonyl)pyrrolidine-2-carboxamide] | 28.7 nM | 406 nM | 0.668 nM | 165 nM |
| CCC[C@H](NC(=O)[C@@H]1C[C@@H](S(=O)(=O)c2ccccc2C(F)(F)F)CN1C(=O)C1(c2ccc(Cl)cc2)CC1)C(=O)C(=O)NC1CC1 [Example 22, (2S,4R)-1-(1-(4-chlorophenyl)cyclopropanecarbonyl)-N—((S)-1-(cyclopropylamino)-1,2-dioxohexan-3-yl)-4-(2-(trifluoromethyl)phenylsulfonyl)pyrrolidine-2-carboxamide] | 26.6 nM | 405 nM | 0.983 nM | 144 nM |
| CC[C@H](NC(=O)[C@@H]1C[C@@H](S(=O)(=O)c2ccccc2Cl)CN1C(=O)C1(c2ncc(Br)cc2F)CC1)C(=O)C(=O)NC1CC1 [Example 23, (2S,4R)-1-(1-(5-bromo-3-fluoropyridin-2-yl)cyclopropanecarbonyl)-4-(2-chlorophenylsulfonyl)-N—((S)-1-(cyclopropylamino)-1,2-dioxopentan-3-yl)pyrrolidine-2-carboxamide] | 42.1 nM | 299 nM | 2.98 nM | 1230 nM |
| CCC[C@H](NC(=O)[C@@H]1C[C@@H](S(=O)(=O)c2ccccc2Cl)CN1C(=O)C1(c2ncc(Cl)cc2F)CC1)C(=O)C(=O)NC1CC1 [Example 24, (2S,4R)-1-(1-(5-chloro-3-fluoropyridin-2-yl)cyclopropanecarbonyl)-4-(2-chlorophenylsulfonyl)-N—((S)-1-(cyclopropylamino)-1,2-dioxohexan-3-yl)pyrrolidine-2-carboxamide] | 10.8 nM | 71.7 nM | 0.55 nM | 190 nM |
| CC[C@H](NC(=O)[C@@H]1C[C@@H](S(=O)(=O)c2ccccc2Cl)CN1C(=O)C1(c2ncc(Cl)cc2F)CC1)C(=O)C(=O)NC1CC1 [Example 25, (2S,4R)-1-(1-(5-chloro-3-fluoropyridin-2-yl)cyclopropanecarbonyl)-4-(2-chlorophenylsulfonyl)-N—((S)-1-(cyclopropylamino)-1,2-dioxopentan-3-yl)pyrrolidine-2-carboxamide] | 9.8 nM | 97.7 nM | 0.403 nM | 251 nM |
| CC(C)(NC(=O)[C@@H]1C[C@@H](S(=O)(=O)c2ccccc2Cl)CN1C(=O)C1(c2ccc(Cl)cc2)CC1)C(=O)C(=O)NC1CC1 [Example 26, (2S,4R)-1-(1-(4-chlorophenyl)cyclopropanecarbonyl)-4-(2-chlorophenylsulfonyl)-N-(4-(cyclopropylamino)-2-methyl-3,4-dioxobutan-2-yl)pyrrolidine-2-carboxamide] | 3100 nM | 25000 nM | 10.5 nM | 25000 nM |
| O=C(NC1CC1)C(=O)C1(NC(=O)[C@@H]2C[C@@H](S(=O)(=O)c3ccccc3Cl)CN2C(=O)C2(c3ccc(Cl)cc3)CC2)CC1 [Example 27, (2S,4R)-1-(1-(4-chlorophenyl)cyclopropanecarbonyl)-4-(2-chlorophenylsulfonyl)-N-(1-(2-(cyclopropylamino)-2-oxoacetyl)cyclopropyl)pyrrolidine-2-carboxamide] | 6800 nM | 25000 nM | 17.9 nM | 25000 nM |
| CC(C)C[C@H](NC(=O)[C@@H]1C[C@@H](S(=O)(=O)c2ccccc2Cl)CN1C(=O)C1(c2ccc(Cl)cc2)CC1)C(=O)C(=O)NC1CC1 [Example 29, (2S,4R)-1-(1-(4-chlorophenyl)cyclopropanecarbonyl)-4-(2-chlorophenylsulfonyl)-N—((S)-1-(cyclopropylamino)-5-methyl-1,2-dioxohexan-3-yl)pyrrolidine-2-carboxamide] | 18.4 nM | 69 nM | 1.27 nM | 178 nM |

Reference: US8729061B2, “Pyrrolidine derivatives” (Hoffmann-La Roche Inc., priority 2011, dated 2014)
